Measurements published in patent US11957766B2, “HNQO1-activatable fluorescent probe for imaging cancer cells in-vitro and in-vivo” (Texas Tech University System, priority 2019, dated 2024).
Values joined by “and” are separate entries in the source; they are usually repeats but may differ in a detail not shown here. Equal values may be shown once.

Assays:
A549 and H460 cells = assay: Flow cytometry of NIR-ASM in NQO1-positive cancer cell lines; assay type: cell-based, human; conditions: 60 min, about 1×10^4 cells
Method: Detection of NQO1 in live cells. Inspired by the excellent biocompatibility, the inventors investigated its performance in both NQO1 expressing cancer cells (A549, H460) and NQO1 non-expressing normal cells (IMR90, HUVEC). All cells were incubated with NIR-ASM (10 μM) for 60 min, washed with PBS and were imaged under a confocal microscope after counterstaining the nuclei with Hoechst 33342 (FIG. 12A). […] The higher expression of NQO1 protein in A549 and H460 cells and its absence in normal cells, IMR90 and HUVEC as found with western blot analysis correlated with the probe reactivity in cells (FIG. 12B). […] Cell sorting using flow cytometry is a well-established technology in clinical diagnostics and biomedical research. To assess the applicability of the NIR-ASM to rapidly detect and quantify in both cancer and normal cells based on NQO1 expression, the probe was incubated with cell suspensions for 60 min, and about 1×10^4 cells were analyzed on a flow cytometer.
Flow cytometry analysis. The endogenous NQO1 activity of cancer cells and normal cells was determined by flow cytometry after NIR-ASM exposure. Cells were incubated with 10 μM of NIR-ASM for 60 min, harvested by trypsinization and washed with PBS. For inhibitor study, cells were pretreated with NQO1 inhibitor ES936 (100 nM) for 6 h before adding the NIR-ASM. About 1×10^4 cells were analyzed by flow cytometry (λex=488 nm).

NQO1 [1] = biological target: T1, NQO1 (Homo sapiens, UniProt P15559); assay: HPLC analysis of NQO1 catalyzed conversion of NIR-ASM; assay type: biochemical; design: purchased Sigma-Aldrich D1515; conditions: after 30 min of incubation
T1 sequence (P15559 whole entry): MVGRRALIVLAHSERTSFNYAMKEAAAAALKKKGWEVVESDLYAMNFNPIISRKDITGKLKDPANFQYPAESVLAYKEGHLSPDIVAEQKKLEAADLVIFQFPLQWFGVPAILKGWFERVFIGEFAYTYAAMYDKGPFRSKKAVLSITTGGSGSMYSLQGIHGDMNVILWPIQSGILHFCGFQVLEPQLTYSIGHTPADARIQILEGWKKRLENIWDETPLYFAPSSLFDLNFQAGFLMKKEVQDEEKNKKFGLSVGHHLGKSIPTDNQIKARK
Description: Design, preparation, and characterization of the NIR-ASM fluorescent probe. Imaging agents emitting near-infrared fluorescence enable deeper penetration with low phototoxicity and high signal-to-background ratios due to minimal tissue auto-fluorescence, which is a prime requirement for in vivo imaging studies.^40,41 Accordingly, the inventors designed an NQO1 activatable near-infrared fluorescent probe (NIR-ASM) by attaching a trimethyl-lock QPA with (E)-2-(3-(4-aminostyryl)-5,5-dimethylcyclohex-2-en-1-ylidene)malononitrile (ASM) for molecular imaging of cancer cells in vivo (FIG. 9A). The fluorophore ASM was used in this study because of its strong NIR fluorescence signal with substantial Stokes shift (˜190 nm), to eliminate background interferences by avoiding reabsorption of emitted photons. […] NQO1 is a ubiquitous cytosolic two-electron reductase that catalyzes the reduction of quinone substrates in the presence of NADH. Upon interaction with NQO1 in the presence of NADH, QPA present in non-fluorescent NIR-ASM undergoes two-electron reduction to form an o-hydroxydihydrocinnamic acid derivative that undergoes rapid lactonization under physiological conditions to yield dihydrocoumarin, 6-hydroxy-4,4,5,7,8-pentamethylchroman-2-one (HPC) along with highly fluorescent ASM. […]

NQO1 [2] = biological target: T1, NQO1; assay: Spectroscopic response of NQ-DCP to hNQO1; assay type: biochemical
Method: Spectroscopic Response of NQ-DCP to hNQO1. The spectroscopic response of the NQ-DCP probe to an hNQO1 enzyme in the presence of NADH was evaluated in a physiologically relevant buffer (0.1% BSA and 100 μM NADH containing PBS) to determine its ability to detect hNQO1. The absorption and fluorescence spectra of NQ-DCP in the absence and presence of hNQO1 are shown in FIGS. 2A and B. In the presence of hNQO1, although there was a distinct color change from yellow to red there was no difference found in the absorption maximum (425 nm) of NQ-DCP ([…]). Further, the reaction of NQ-DCP probe with hNQO1 produced a huge fluorescence enhancement at 565 nm with a large Stokes shift (140 nm) (FIG. 2B), which is favorable for sensitive detection and bioimaging analysis, because of a non-overlapping fluorescence emission. […] The inventors measured the fluorescence spectra of NQ-DCP (10 μm) following incubation with different concentrations of hNQO1 (0.12, 0.25, 0.5, 1.0, 1.5, 2.0, and 2.5 μg/mL (0.0038, 0.008, 0.016, 0.032, 0.048, 0.064, 0.08 μmol)) along with 100 μM NADH at pH 7.4 for 30 min. […] On incubation with hNQO1, the fluorescence intensity at 565 nm increased progressively with the NQO1 concentration and reached a maximum when the hNQO1 concentration was 2.5 μg/mL. The fluorescence intensity at 565 nm was linear with hNQO1 concentration, 0.25-2.0 μg/mL (FIG. 2D). The hNQO1 detection limit (LOD) of NQ-DCP was calculated to be as low as 0.095 μg/mL, based on the standard deviation of the response (Sy) and the slope of the calibration curve (S) according to the formula: LOD=3.3(Sy/S).
Spectroscopic Methods. For absorption and fluorescence measurements, all samples were first dissolved in 100% DMSO to obtain 10 mM stock solutions and then diluted to desired concentrations in PBS buffer containing 0.1% BSA for measurement. All spectroscopic measurements were performed under physiological conditions (pH 7.4 at room temperature. hNQO1 specific NQ-DCP activation was performed under philological conditions (PBS with 0.1% of BSA at 37° C.) in the presence of 100 μM NADH for 30 min. Time-dependent fluorescent intensity changes for different concentrations of […] in the presence of NQO1 (2.0 μg/mL) and 100 μM NADH were measured using Hitachi F-2500 Fluorescence spectrophotometer (λex=420 nm and λem=565 nm).

conversion into ASM by NQO1 (HPLC) (NQO1 [1])	Stokes-Shift (NQO1 [2])	λabs/em (NQO1 [2])	hNQO1 concentration range in which fluorescence intensity at 565 nm was linear (NQO1 [2]; 10 μM probe, 100 μM NADH, 30 min)	hNQO1 detection limit (LOD) (NQO1 [2]; 10 μM probe, 100 μM NADH, pH 7.4, 30 min, LOD=3.3(Sy/S))	stability in the absence of hNQO1 (NQO1 [2]; PBS with 0.1% BSA, 100 μM NADH, pH 7.4, 30 min, no hNQO1)	Stokes shift (NQO1 [2]; after reaction with hNQO1)	fluorescence enhancement (emission wavelength) (NQO1 [2]; after reaction with hNQO1)	absorption maximum (NQO1 [2]; no difference in the presence of hNQO1)	SMILES	flow cytometry fluorescence signal, NQO1-positive cells (A549 and H460 cells)
nearly completely converted into ASM									CC1=C(C)C(=O)C(C(C)(C)CC(=O)Nc2ccc(/C=C/C3=CC(=C(C#N)C#N)CC(C)(C)C3)cc2)=C(C)C1=O [NIR-ASM, (E)-N-(4-(2-(3-(dicyanomethylene)-5,5-dimethylcyclohex-1-en-1-yl)vinyl)phenyl)-3-methyl-3-(2,4,5-trimethyl-3,6-dioxocyclohexa-1,4-dien-1-yl)butanamide]	high-intensity unimodal distribution of signals
	145	420/465	0.25 to 2.0 µg/mL	0.095 µg/mL	highly stable	145 nm and 140 nm	565 nm	425 nm	CC1=C(C)C(=O)C(C(C)(C)CC(=O)Oc2ccc(/C=C/C3=CC(=C(C#N)C#N)CC(C)(C)C3)cc2)=C(C)C1=O [NQ-DCP]	
